Results: PubChem BioAssay AID296 (DTP/NCI, 2004)
Values joined by “and” are separate entries in the source; they are usually repeats but may differ in a detail not shown here. Equal values may be shown once. Inconclusive results are not listed.

System: MX-1 breast xenograft, nude mice, tumor weight T/C
Assay: NCI In Vivo Anticancer Drug Screen. Data for tumor model Human Mammary Carcinoma MX-1 Xenograft (intrarenal inoculation) in NU/NU Swiss (nude) mice
Settings: endpoint: mean tumor weight change, higher = larger tumour
Outline: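 Compound dosed to mice with transplantable tumor; vehicle group as control. Endpoint survival or tumour size, reported as T/C.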

[1] = dose: 300.0 mg/kg/injection, schedule: Q04DX003 (sc), vehicle: saline with Tween-80
[2] = dose: 600.0 mg/kg/injection, schedule: Q04DX003 (sc), vehicle: saline with Tween-80
[3] = dose: 1200.0 mg/kg/injection, schedule: Q04DX003 (sc), vehicle: saline with Tween-80
[4] = dose: 100.0 mg/kg/injection, schedule: Q01DX010 (sc), vehicle: saline
[5] = dose: 75.0 mg/kg/injection, schedule: Q04DX003 (sc), vehicle: suspension in saline
[6] = dose: 150.0 mg/kg/injection, schedule: Q04DX003 (sc), vehicle: suspension in saline
[7] = dose: 300.0 mg/kg/injection, schedule: Q04DX003 (sc), vehicle: suspension in saline
[8] = dose: 600.0 mg/kg/injection, schedule: Q04DX003 (sc), vehicle: suspension in saline
[9] = dose: 150.0 mg/kg/injection, schedule: Q04DX003 (ip), vehicle: saline with Tween-80
[10] = dose: 300.0 mg/kg/injection, schedule: Q04DX003 (ip), vehicle: saline with Tween-80
[11] = dose: 600.0 mg/kg/injection, schedule: Q04DX003 (ip), vehicle: saline with Tween-80
[12] = dose: 1200.0 mg/kg/injection, schedule: Q04DX003 (ip), vehicle: saline with Tween-80
[13] = dose: 300.0 mg/kg/injection, schedule: Q04DX003 (sc), vehicle: saline
[14] = dose: 2400.0 mg/kg/injection, schedule: Q04DX003 (sc), vehicle: saline with Tween-80
[15] = dose: 75.0 mg/kg/injection, schedule: Q04DX003 (sc), vehicle: saline with Tween-80
[16] = dose: 150.0 mg/kg/injection, schedule: Q04DX003 (sc), vehicle: saline with Tween-80
[17] = dose: 300.0 mg/kg/injection, schedule: Q04DX003 (sc), vehicle: Klucel (hydroxypropylcellulose) (HPC)
[18] = dose: 600.0 mg/kg/injection, schedule: Q04DX003 (sc), vehicle: saline
[19] = dose: 1200.0 mg/kg/injection, schedule: Q04DX003 (sc), vehicle: saline
[20] = dose: 2400.0 mg/kg/injection, schedule: Q04DX003 (sc), vehicle: saline

C=C1C(=O)OCC1C(=O)O (configuration not stated)
T/C (dose: 50.0 mg/kg/injection, schedule: Q04DX003 (sc), vehicle: suspension in saline): 74 % of control
T/C (dose: 100.0 mg/kg/injection, schedule: Q04DX003 (sc), vehicle: suspension in saline): 94 % of control
T/C (dose: 200.0 mg/kg/injection, schedule: Q04DX003 (sc), vehicle: suspension in saline): 50 % of control

CNc1nc(NC)nc(NC)n1
T/C (dose: 25.0 mg/kg/injection, schedule: Q01DX010 (ip), vehicle: Klucel (hydroxypropylcellulose) (HPC)): 164 % of control
T/C (dose: 100.0 mg/kg/injection, schedule: Q01DX010 (ip), vehicle: Klucel (hydroxypropylcellulose) (HPC)): 61 % of control
T/C (dose: 100.0 mg/kg/injection, schedule: Q01DX010 (sc), vehicle: Klucel (hydroxypropylcellulose) (HPC)): 93 % of control
T/C (dose: 200.0 mg/kg/injection, schedule: Q01DX010 (ip), vehicle: Klucel (hydroxypropylcellulose) (HPC)): 40 % of control

CCC1=C2C(=O)c3ccccc3C2=C(C)S(=O)(=O)O1
T/C [1]: 122 % of control
T/C [2]: 104 % of control
T/C [3]: 106 % of control

CNNCc1ccc(C(=O)NC(C)C)cc1
T/C [4]: 57 % of control and 69 % of control
T/C (dose: 400.0 mg/kg/injection, schedule: Q01DX010 (sc), vehicle: saline): 7 % of control

CSC(SC)=C1C(=O)NC(=O)NC1=O
T/C [5]: 69 % of control
T/C [6]: 75 % of control
T/C [7]: 108 % of control
T/C [8]: 42 % of control

Nc1n[n+](-c2ccc(Cl)cc2)no1
T/C (dose: 25.0 mg/kg/injection, schedule: Q04DX003 (sc), vehicle: water): 93 % of control
T/C (dose: 50.0 mg/kg/injection, schedule: Q04DX003 (sc), vehicle: water): 102 % of control

Cc1cc(Br)c2nsnc2c1[N+](=O)[O-]
T/C [9]: 104 % of control
T/C [10]: 74 % of control
T/C [11]: 97 % of control
T/C [12]: 159 % of control

CN(CO)c1nc(N(C)CO)nc(N(C)CO)n1
T/C (dose: 12.5 mg/kg/injection, schedule: Q01DX010 (sc), vehicle: saline): 157 % of control
T/C (dose: 25.0 mg/kg/injection, schedule: Q01DX010 (sc), vehicle: saline): 55 % of control
T/C (dose: 50.0 mg/kg/injection, schedule: Q01DX010 (sc), vehicle: saline): 4 % of control
T/C [4]: -81 % of control
T/C (dose: 100.0 mg/kg/injection, schedule: Q01DX010 (sc), vehicle: suspension in saline): -100 % of control
T/C (dose: 150.0 mg/kg/injection, schedule: Q04DX003 (sc), vehicle: saline): -80 % of control and -77 % of control and -57 % of control
T/C (dose: 200.0 mg/kg/injection, schedule: Q01DX010 (sc), vehicle: suspension in saline): -100 % of control
T/C [13]: -85 % of control and -84 % of control
T/C [7]: -87 % of control and -100 % of control

Nc1n[n+](-c2ccccc2)no1
T/C (dose: 18.75 mg/kg/injection, schedule: Q04DX003 (sc), vehicle: water): 70 % of control
T/C (dose: 37.5 mg/kg/injection, schedule: Q04DX003 (sc), vehicle: water): 94 % of control
T/C (dose: 75.0 mg/kg/injection, schedule: Q04DX003 (sc), vehicle: water): 59 % of control

COC1/C=C/O[C@@]2(C)Oc3c(C)c(O)c4c(O)c(cc(O)c4c3C2=O)NC(=O)/C(C)=C\C=C\[C@H](C)C(O)[C@@H](C)[C@@H](O)[C@@H](C)[C@H](OC(C)=O)[C@@H]1C (some centres not stated)
T/C [8]: 153 % of control
T/C (dose: 2400.0 mg/kg/injection, schedule: Q04DX003 (sc), vehicle: suspension in saline): 150 % of control

Cc1cc2nc3c(=O)[nH]c(=O)nc-3n(CC(O)C(O)C(O)C(O)CO)c2cc1C (configuration not stated)
T/C [1]: 93 % of control
T/C [2]: 89 % of control
T/C [3]: 89 % of control
T/C [14]: 91 % of control

CCC[P+](c1ccccc1)(c1ccccc1)c1ccccc1
T/C (dose: 18.75 mg/kg/injection, schedule: Q04DX003 (sc), vehicle: saline with Tween-80): 100 % of control
T/C (dose: 37.5 mg/kg/injection, schedule: Q04DX003 (sc), vehicle: saline with Tween-80): 73 % of control
T/C [15]: 62 % of control
T/C [16]: 54 % of control

O=S(=O)(O)O
T/C (dose: 75.0 mg/kg/injection, schedule: Q04DX003 (sc), vehicle: Klucel (hydroxypropylcellulose) (HPC)): 86 % of control
T/C (dose: 150.0 mg/kg/injection, schedule: Q04DX003 (sc), vehicle: Klucel (hydroxypropylcellulose) (HPC)): 94 % of control
T/C [17]: 85 % of control

CC1OC(=O)C(C(C)C)NC(=O)C(C(C)C)OC(=O)C(C(C)C)NC(=O)C(C)OC(=O)C(C(C)C)NC(=O)C(C(C)C)OC(=O)C(C(C)C)NC(=O)C(C)OC(=O)C(C(C)C)NC(=O)C(C(C)C)OC(=O)C(C(C)C)NC1=O (configuration not stated)
T/C (dose: 2.5 mg/kg/injection, schedule: Q01DX010 (sc), vehicle: saline with Tween-80): 84 % of control
T/C (dose: 5.0 mg/kg/injection, schedule: Q01DX010 (sc), vehicle: saline with Tween-80): 150 % of control
T/C (dose: 10.0 mg/kg/injection, schedule: Q01DX010 (sc), vehicle: saline with Tween-80): 95 % of control and 112 % of control

c1ccc2c(NCCCCCCNc3c4ccccc4nc4ccccc34)c3ccccc3nc2c1
T/C (dose: 10.0 mg/kg/injection, schedule: Q01DX010 (sc), vehicle: Klucel (hydroxypropylcellulose) (HPC)): 87 % of control
T/C (dose: 10.0 mg/kg/injection, schedule: Q04DX003 (sc), vehicle: Klucel (hydroxypropylcellulose) (HPC)): 297 % of control
T/C (dose: 20.0 mg/kg/injection, schedule: Q01DX010 (sc), vehicle: Klucel (hydroxypropylcellulose) (HPC)): 58 % of control
T/C (dose: 20.0 mg/kg/injection, schedule: Q04DX003 (sc), vehicle: Klucel (hydroxypropylcellulose) (HPC)): 241 % of control
T/C (dose: 40.0 mg/kg/injection, schedule: Q04DX003 (sc), vehicle: Klucel (hydroxypropylcellulose) (HPC)): 322 % of control
T/C (dose: 80.0 mg/kg/injection, schedule: Q04DX003 (sc), vehicle: Klucel (hydroxypropylcellulose) (HPC)): 199 % of control

CC1=C(C)C(=O)O[C@@H]([C@](C)(O)[C@]2(O)CC[C@@]3(O)[C@@H]4C[C@H]5O[C@]56CC=CC(=O)[C@]6(C)[C@H]4CC[C@]23C)C1
T/C [5]: 112 % of control
T/C [6]: 83 % of control
T/C [7]: 83 % of control
T/C [8]: 95 % of control

CC(C)(C)C1CCCCC1
T/C [17]: 101 % of control
T/C (dose: 600.0 mg/kg/injection, schedule: Q04DX003 (sc), vehicle: Klucel (hydroxypropylcellulose) (HPC)): 89 % of control
T/C (dose: 1200.0 mg/kg/injection, schedule: Q04DX003 (sc), vehicle: Klucel (hydroxypropylcellulose) (HPC)): 75 % of control
T/C (dose: 2400.0 mg/kg/injection, schedule: Q04DX003 (sc), vehicle: Klucel (hydroxypropylcellulose) (HPC)): 65 % of control

Nc1ccc2ccc(NS(=O)(=O)N3CCCCC3)cc2c1
T/C [9]: 110 % of control
T/C [10]: 72 % of control
T/C [11]: 86 % of control
T/C [12]: 92 % of control

COc1cccc2c1C(=O)c1c(O)c3c(c(O)c1C2=O)C[C@@](O)(/C(C)=N/NC(=O)c1ccc(Cl)cc1)C[C@@H]3OC1CC(N)C(O)C(C)O1 (some centres not stated)
T/C (dose: 1.0 mg/kg/injection, schedule: Q01DX010 (sc), vehicle: water): 58 % of control
T/C (dose: 4.0 mg/kg/injection, schedule: Q01DX010 (sc), vehicle: water): 84 % of control and 109 % of control
T/C (dose: 16.0 mg/kg/injection, schedule: Q01DX010 (sc), vehicle: water): 49 % of control

O=S1(=O)C=C(c2ccccc2)C(c2ccccc2)=C1
T/C [1]: 80 % of control
T/C [2]: 71 % of control
T/C [3]: 83 % of control
T/C [14]: 74 % of control

CCCCCC[C@@H](O)C/C=C\CCCCCCCC(=O)OCCO
T/C [13]: 87 % of control
T/C [18]: 104 % of control
T/C [19]: 96 % of control
T/C [20]: 103 % of control

CCC(CC)COC(=O)c1ccccc1C(=O)OCC(CC)CC
T/C [13]: 112 % of control
T/C [18]: 82 % of control
T/C [19]: 110 % of control
T/C [20]: 88 % of control

O=S(=O)(N=N/C=C1\C=CC=CN1O)c1cccs1
T/C [15]: 99 % of control
T/C [16]: 77 % of control
T/C [1]: 72 % of control

CCOC(=O)C(N)C[S][Sn]([CH3])([CH3])[Cl] (configuration not stated)
T/C (dose: 75.0 mg/kg/injection, schedule: Q04DX003 (sc), vehicle: saline): 155 % of control
